Key:
IRAK4 [1] = target: T1, IRAK4 (Homo sapiens, UniProt Q9NWZ3); test: IRAK4 Degradation Assay with Human Serum (Karpas299, HTRF/TR-FRET); format: cell-based; settings: Karpas-299 in human serum, 24 hrs treatment; for DC50: read-out: IRAK4 degradtion with human serum assay DC50; for Dmax: read-out: IRAK4 degradtion with human serum assay Dmax (%)
T1 construct: endogenous in cells; host or cells: Karpas299
T1 sequence (Q9NWZ3 1-460): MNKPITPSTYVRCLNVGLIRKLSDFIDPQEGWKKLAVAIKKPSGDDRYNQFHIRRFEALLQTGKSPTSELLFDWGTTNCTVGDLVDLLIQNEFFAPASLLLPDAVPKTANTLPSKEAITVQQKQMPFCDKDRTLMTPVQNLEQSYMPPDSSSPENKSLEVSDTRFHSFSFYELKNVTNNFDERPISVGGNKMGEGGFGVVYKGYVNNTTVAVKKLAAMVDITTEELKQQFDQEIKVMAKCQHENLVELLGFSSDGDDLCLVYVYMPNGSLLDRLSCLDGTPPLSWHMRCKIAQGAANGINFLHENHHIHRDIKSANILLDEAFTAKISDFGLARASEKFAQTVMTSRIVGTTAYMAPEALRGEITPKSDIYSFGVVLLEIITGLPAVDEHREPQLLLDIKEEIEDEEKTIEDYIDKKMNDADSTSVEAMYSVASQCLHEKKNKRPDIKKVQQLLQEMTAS
Outline: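 Karpas299 cells in human AB serum (0.2 million/well) treated with serial compound dilutions for 24 h. After lysis, IRAK4 quantified by HTRF (overnight antibody incubation at room temperature, 665/620 nm read). Degradation percentage fitted to four-parameter curve to give DC50.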

IRAK4 [2] = target: T1, IRAK4; test: IRAK4 Degradation Assay (Karpas299, HTRF/TR-FRET); format: cell-based; settings: Karpas-299 cells; for Dmax: maximum percentage of degradation
Outline: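 Karpas299 cells at 0.2 million per well were exposed to serially diluted compounds for 24 h or 5 h, then lysed. IRAK4 remaining in lysates was quantified by HTRF (665/620 nm) after overnight antibody incubation at room temperature. Percent degradation was fitted to a four-parameter curve to give IC50 (DC50).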

[3] = 24 h treatment, read-out: IRAK4 in Karpas-299 (24 h) Dmax (%)
[4] = 24 h treatment, read-out: IRAK4 in Karpas-299 (24 h) DC50
[5] = 5 h treatment, read-out: IRAK4 in Karpas-299 (5 h) Dmax (%)
[6] = 5 h treatment, read-out: IRAK4 in Karpas-299 (5 h) DC50

DC50 (IRAK4 [1]) [nM]	Dmax (IRAK4 [1]) [%]	Dmax (IRAK4 [2]; [3]) [%]	DC50 (IRAK4 [2]; [4]) [nM]	Dmax (IRAK4 [2]; [5]) [%]	DC50 (IRAK4 [2]; [6]) [nM]	Structure (SMILES)
16	97	98	3.4	–	–	CC(C)(O)c1cc2nn(C3CCN([C@@H]4CCN(CCc5cc(F)c([C@H]6CCC(=O)NC6=O)c(F)c5)CC4(F)F)CC3)cc2cc1NC(=O)c1ccc2cc(C#N)cnn12 [Example 340, 3-cyano-N-(2-((R)-1′-(4-((R)-2,6-dioxopiperidin-3-yl)-3,5-difluorophenethyl)-3′,3′-difluoro-[1,4′-bipiperidin]-4-yl)-6-(2-hydroxypropan-2-yl)-2H-indazol-5-yl)pyrrolo[1,2-b]pyridazine-7-carboxamide]
15	96	97	1.5	–	–	CC(C)(O)c1cc2nn(C3CCN([C@@H]4CCN(C5CCN(c6cc(F)c([C@H]7CCC(=O)NC7=O)c(F)c6)CC5)CC4(F)F)CC3)cc2cc1NC(=O)c1ccc2cc(C#N)cnn12 [Example 341, 3-cyano-N-(2-((R)-1″-(4-((R)-2,6-dioxopiperidin-3-yl)-3,5-difluorophenyl)-3′,3′-difluoro-[1,4′:1′,4″-terpiperidin]-4-yl)-6-(2-hydroxypropan-2-yl)-2H-indazol-5-yl)pyrrolo[1,2-b]pyridazine-7-carboxamide]
14	98	102	1.5	–	–	CC(C)(O)c1cc2nn(C3CCN([C@@H]4CCN(C5CN(c6cc(F)c([C@H]7CCC(=O)NC7=O)c(F)c6)C5)CC4(F)F)CC3)cc2cc1NC(=O)c1ccc2cc(C#N)cnn12 [Example 342, 3-cyano-N-(2-((R)-1′-(1-(4-((R)-2,6-dioxopiperidin-3-yl)-3,5-difluorophenyl)azetidin-3-yl)-3′,3′-difluoro-[1,4′-bipiperidin]-4-yl)-6-(2-hydroxypropan-2-yl)-2H-indazol-5-yl)pyrrolo[1,2-b]pyridazine-7-carboxamide]
2.3	102	97	0.1	–	–	COc1cc2nn([C@H]3CC[C@H](N4CCN(C(=O)C5CN(c6cc(F)c([C@H]7CCC(=O)NC7=O)c(F)c6)C5)CC4)CC3)cc2cc1C(=O)Nc1cnc2cccnn12 [Example 343, 2-((1r,4r)-4-(4-(1-(4-((R)-2,6-dioxopiperidin-3-yl)-3,5-difluorophenyl)azetidine-3-carbonyl)piperazin-1-yl)cyclohexyl)-N-(imidazo[1,2-b]pyridazin-3-yl)-6-methoxy-2H-indazole-5-carboxamide]
2.7	100	98	0.24	–	–	COc1cc2nn([C@H]3CC[C@H](N4CCN(C(=O)C5CN(c6cc(F)c([C@H]7CCC(=O)NC7=O)c(F)c6)C5)CC4)CC3)cc2cc1C(=O)Nc1cnn2cccnc12 [Example 344, 2-((1r,4r)-4-(4-(1-(4-((R)-2,6-dioxopiperidin-3-yl)-3,5-difluorophenyl)azetidine-3-carbonyl)piperazin-1-yl)cyclohexyl)-6-methoxy-N-(pyrazolo[1,5-a]pyrimidin-3-yl)-2H-indazole-5-carboxamide]
5.5	99	97	1.4	93	1.6	CC(C)(O)c1cc2nn(C3CCN(C4CCN(C(=O)C5CN(c6cc(F)c([C@H]7CCC(=O)NC7=O)c(F)c6)C5)CC4)CC3)cc2cc1NC(=O)c1ccc2cc(C#N)cnn12 [Example 346, (R)-3-cyano-N-(2-(1′-(1-(4-(2,6-dioxopiperidin-3-yl)-3,5-difluorophenyl)azetidine-3-carbonyl)-[1,4′-bipiperidin]-4-yl)-6-(2-hydroxypropan-2-yl)-2H-indazol-5-yl)pyrrolo[1,2-b]pyridazine-7-carboxamide]
25	103	96	1.3	93	2.2	CC(C)(O)c1cc2nn(C3CCN(C4CCN(C(=O)[C@@H]5CCN(c6cc(F)c([C@H]7CCC(=O)NC7=O)c(F)c6)C5)CC4)CC3)cc2cc1NC(=O)c1ccc2cc(C#N)cnn12 [Example 347, 3-cyano-N-(2-(1′-((R)-1-(4-((R)-2,6-dioxopiperidin-3-yl)-3,5-difluorophenyl)pyrrolidine-3-carbonyl)-[1,4′-bipiperidin]-4-yl)-6-(2-hydroxypropan-2-yl)-2H-indazol-5-yl)pyrrolo[1,2-b]pyridazine-7-carboxamide]
6.6	95	94	0.4	–	–	Cn1c(=O)n(C2CCC(=O)NC2=O)c2cccc(CCCN3CCN([C@H]4CC[C@H](n5cc6cc(NC(=O)c7ccc8cc(C#N)cnn78)c(C(C)(C)O)cc6n5)CC4)CC3)c21 (stereo partly drawn) [Example 348, 3-cyano-N-(2-((1r,4r)-4-(4-(3-(1-(2,6-dioxopiperidin-3-yl)-3-methyl-2-oxo-2,3-dihydro-1H-benzo[d]imidazol-4-yl)propyl)piperazin-1-yl)cyclohexyl)-6-(2-hydroxypropan-2-yl)-2H-indazol-5-yl)pyrrolo[1,2-b]pyridazine-7-carboxamide]
7.7	98	97	2.4	94	3.9	CC(C)(O)c1cc2nn(C34CC(N5CCN(CCC6CCN(c7cc(F)c([C@H]8CCC(=O)NC8=O)c(F)c7)CC6)CC5)(C3)C4)cc2cc1NC(=O)c1ccc2cc(C#N)cnn12 [Example 349, (R)-3-cyano-N-(2-(3-(4-(2-(1-(4-(2,6-dioxopiperidin-3-yl)-3,5-difluorophenyl)piperidin-4-yl)ethyl)piperazin-1-yl)bicyclo[1.1.1]pentan-1-yl)-6-(2-hydroxypropan-2-yl)-2H-indazol-5-yl)pyrrolo[1,2-b]pyridazine-7-carboxamide]
16	97	89	2.1	–	–	Cn1c(=O)n(C2CCC(=O)NC2=O)c2cccc(CCCN3CCN(C45CC(n6cc7cc(NC(=O)c8ccc9cc(C#N)cnn89)c(C(C)(C)O)cc7n6)(C4)C5)CC3)c21 (stereo not drawn) [Example 350, 3-cyano-N-(2-(3-(4-(3-(1-(2,6-dioxopiperidin-3-yl)-3-methyl-2-oxo-2,3-dihydro-1H-benzo[d]imidazol-4-yl)propyl)piperazin-1-yl)bicyclo[1.1.1]pentan-1-yl)-6-(2-hydroxypropan-2-yl)-2H-indazol-5-yl)pyrrolo[1,2-b]pyridazine-7-carboxamide]
3.5	88	95	0.8	–	–	CC(C)(O)c1cc2nn([C@H]3CC[C@H](N4CCN(CC5CCN(c6ccc7c(c6)CN(C6CCC(=O)NC6=O)C7=O)CC5)CC4)CC3)cc2cc1NC(=O)c1ccc2cc(C#N)cnn12 (stereo partly drawn) [Example 353, 3-cyano-N-(2-((1r,4r)-4-(4-((1-(2-(2,6-dioxopiperidin-3-yl)-1-oxoisoindolin-5-yl)piperidin-4-yl)methyl)piperazin-1-yl)cyclohexyl)-6-(2-hydroxypropan-2-yl)-2H-indazol-5-yl)pyrrolo[1,2-b]pyridazine-7-carboxamide]
75	73	95	0.4	–	–	N#Cc1cnn2c(C(=O)Nc3cc4cn([C@H]5CC[C@H](N6CCN(C(=O)C7CN(c8cc(F)c([C@H]9CCC(=O)NC9=O)c(F)c8)C7)CC6)CC5)nc4c4c3OCO4)ccc2c1 [Example 355]

From patent US20250195513A1, “DEGRADATION OF IRAK4 BY CONJUGATION OF IRAK4 INHIBITORS WITH E3 LIGASE LIGAND AND METHODS OF USE” (BeiGene, Ltd., priority 2022, published 2025)
